Like-named read-outs stand apart in the source and are kept apart here.
Key:
[1] = system: green peach aphid (Myzus persicae); assay: Myzus test (MYZUPE spray treatment); type: in vivo; conditions: Myzus persicae, foliar, read-out: effect in % (aphids killed)
From the text: Solvent: 78 parts by weight of acetone
(§1) Solvent: 78.0 parts by weight of acetone

[2] = system: Lucilia cuprina larvae; assay: Lucilia cuprina test (LUCICU); type: in vivo; conditions: read-out: kill in % (larvae killed)
Experimental: (§2) Solvent: dimethyl sulphoxide
Vessels containing horse meat treated with the active compound preparation of the desired concentration are populated with Lucilia cuprina larvae.
(§3) After the desired period of time, the kill in % is determined.

[3] = system: Boophilus microplus; assay: Boophilus microplus test (BOOPMI injection); type: in vivo; conditions: Rhipicephalus microplus, read-out: effect in % (no fertile eggs laid)
Experimental: as §2
The solution of active compound is injected into the abdomen (Boophilus microplus), and the animals are transferred into dishes and kept in a climatised room. The activity is assessed by […] of fertile eggs.
100% means that none of the ticks has laid any fertile eggs.

[4] = system: larvae of the mustard beetle (Phaedon cochleariae); assay: Phaedon test (PHAECO spray treatment); conditions: Phaedon cochleariae, in Brassica rapa, foliar, read-out: effect in % (beetle larvae killed)
[5] = system: caterpillars of the armyworm (Spodoptera frugiperda); assay: Spodoptera frugiperda test (SPODFR spray treatment); type: in vivo; conditions: Spodoptera frugiperda, foliar, read-out: effect in % (caterpillars killed)
From the text: as §1

[6] = log P determination by HPLC (EEC Directive 79/831 Annex V.A8); type: physicochemical
Experimental: The measurements were carried out using an Agilent 1100 LC system with a 50*4.6 Zorbax Eclipse C18 1.8 μm column (oven temperature 55° C., flow rate 2.0 ml/min).
The following mobile phases were used:
Mobile phase A: acetonitrile+1000 μl of formic acid/l
Mobile phase B: Millipore water+900 μl of formic acid/l

[7] = system: adult Musca domestica; assay: Musca domestica test (MUSCDO); type: in vivo; conditions: treated sponge, read-out: kill in % (flies killed)
Experimental: as §2
Vessels containing a sponge treated with the active compound preparation of the desired concentration are populated with adult Musca domestica.
as §3

[8] = 20 μg/animal, injection into the abdomen
[9] = application rate 100 g/ha, Chinese cabbage leaf discs
[10] = application rate 100 g/ha, maize leaf discs
[11] = reversed-phase HPLC, Zorbax Eclipse C18 column, determined by HPLC according to EEC Directive 79/831 Annex V.A8, read-out: log P
[12] = reversed-phase HPLC, Zorbax Eclipse C18 column, by HPLC according to EEC Directive 79/831 Annex V.A8, read-out: log P

| Structure (SMILES) | pest or weed control at 100 g/ha ([1]; in Brassica rapa) | pest or weed control at 100 g/ha [4] | pest or weed control at 100 g/ha ([5]; in Zea mays) | chromatographic logP ([6]; log P) | pest or weed control at 100 g/ha [1, 9] | pest or weed control at 100 g/ha [5, 10] | other results |
| --- | --- | --- | --- | --- | --- | --- | --- |
| Cc1cc(F)cc(C(=O)NC(C)C)c1NC(=O)c1cc(Cn2nnc(C(F)F)n2)nn1-c1ncccc1Cl [Example 295] | ≥ 80% | ≥ 80% | ≥ 80% | 2.64 |  |  | pest or weed control at 100 ppm ([2]; in Equus caballus): ≥ 80%; pest or weed control at 0.02 mg [3, 8]: ≥ 80% |
| Cc1cc(C#N)cc(C(=O)NC(C)C)c1NC(=O)c1cc(Cn2nnc(C(F)(F)C(F)(F)C(F)(F)F)n2)nn1-c1ncccc1Cl [Example 6] |  | ≥ 80% | ≥ 80% |  |  |  | pest or weed control at 100 ppm ([2]; in Equus caballus): ≥ 80%; pest or weed control at 0.02 mg [3]: ≥ 80%; chromatographic logP ([6]; by HPLC according to EEC Directive 79/831 Annex V.A8, read-out: log P): 3.82 |
| Cc1cc(C#N)cc(C(=O)NC(C)(C)C)c1NC(=O)c1cc(Cn2nnc(C(F)(F)C(F)(F)F)n2)nn1-c1ncccc1Cl [Example 136] | ≥ 80% | ≥ 80% | ≥ 80% | 3.86 |  |  | pest or weed control at 100 ppm [7]: ≥ 80% |
| Cc1cc(C#N)cc(C(N)=O)c1NC(=O)c1cc(Cn2nnc(C(F)(F)C(F)(F)F)n2)nn1-c1ncccc1Cl [Example 137] |  | ≥ 80% | ≥ 80% | 2.83 |  |  | pest or weed control at 100 ppm [7]: ≥ 80% |
| O=C(NC1CC1)c1cc(Cl)cc(Cl)c1NC(=O)c1cc(Cn2nnc(C(F)(F)C(F)(F)F)n2)nn1-c1ncccc1Cl [Example 151] |  | ≥ 80% | ≥ 80% | 3.57 |  |  | pest or weed control at 100 ppm [7]: ≥ 80% |
| Cc1cc(Br)cc(C(=O)NC(C)C2CC2)c1NC(=O)c1cc(Cn2nnc(C(F)(F)C(F)(F)F)n2)nn1-c1ncccc1Cl (stereo not shown) [Example 144] |  | ≥ 80% | ≥ 80% | 4.29 |  |  | pest or weed control at 100 ppm [7]: ≥ 80% |
| CNC(=O)c1cc(C)cc(C)c1NC(=O)c1cc(Cn2nnnc2C(F)(F)F)nn1-c1ncccc1Cl [Example 178] | ≥ 80% | ≥ 80% | ≥ 80% | 2.48 |  |  | pest or weed control at 100 ppm [7]: ≥ 80% |
| Cc1cc(Cl)cc(C(=O)NCC#N)c1NC(=O)c1cc(Cn2nnc(C(F)(F)C(F)(F)F)n2)nn1-c1ncccc1Cl [Example 133] |  | ≥ 80% | ≥ 80% | 3.32 |  |  | pest or weed control at 100 ppm [7]: ≥ 80% |
| Cc1cc(Cl)cc(C(=O)NC(C)(C)C)c1NC(=O)c1cc(Cn2nnnc2C(F)(F)F)nn1-c1ncccc1Br [Example 484] |  | ≥ 80% |  |  | ≥ 80% | ≥ 80% | chromatographic logP [6, 11]: 3.52 |
| Cc1cc(Br)cc(C(=O)NC2CC2)c1NC(=O)c1cc(Cn2nnc(C(F)(F)F)n2)nn1-c1ncccc1C(F)(F)F [Example 229] |  | ≥ 80% |  |  |  | ≥ 80% | pest or weed control at 100 ppm ([2]; 100 ppm, treated horse meat): ≥ 80%; pest or weed control at 0.02 mg [3, 8]: ≥ 80%; chromatographic logP [6, 12]: 3.52 |
| Cc1cc(I)cc(C(N)=O)c1NC(=O)c1cc(Cn2nnnc2C(F)(F)F)nn1-c1ncccc1Br [Example 497] |  | ≥ 80% |  |  | ≥ 80% | ≥ 80% | chromatographic logP [6, 11]: 2.63 |
| Cc1cc(I)cc(C(N)=O)c1NC(=O)c1cc(Cn2nnnc2C(F)(F)F)nn1-c1ncccc1C(F)(F)F [Example 455] |  | ≥ 80% |  |  | ≥ 80% | ≥ 80% | chromatographic logP [6, 11]: 2.83 |
| Cc1cc(C#N)cc(C(=O)NC(C)(C)C)c1NC(=O)c1cc(Cn2nnc(C(F)(F)F)n2)nn1-c1ccccc1 [Example 428] |  | ≥ 80% |  |  | ≥ 80% | ≥ 80% | chromatographic logP [6, 11]: 3.72 |
| CNC(=O)c1cc(C#N)cc(C)c1NC(=O)c1cc(Cn2nnc(C(F)(F)F)n2)nn1-c1c(F)cccc1Cl [Example 529] |  | ≥ 80% |  |  | ≥ 80% | ≥ 80% | chromatographic logP [6, 11]: 3.13 |
| Cc1cc(F)cc(C(=O)NCC#N)c1NC(=O)c1cc(Cn2nnc(C(F)(F)F)n2)nn1-c1ncccc1Cl [Example 53] | ≥ 80% | ≥ 80% | ≥ 80% | 2.67 |  |  |  |
| Cc1cc(F)cc(C(=O)NC2CC2)c1NC(=O)c1cc(Cn2nnnc2C(F)(F)F)nn1-c1ncccc1Cl [Example 169] | ≥ 80% | ≥ 80% | ≥ 80% | 2.57 |  |  |  |
| CCNC(=O)c1cc(C#N)cc(C)c1NC(=O)c1cc(Cn2nnc(C(F)(F)F)n2)nn1-c1ncccc1Br [Example 322] |  | ≥ 80% |  |  | ≥ 80% | ≥ 80% | chromatographic logP [6, 12]: 2.88 |
| O=C(NCC1CC1)c1cc(Cl)cc(Cl)c1NC(=O)c1cc(Cn2nnc(C(F)F)n2)nn1-c1ncccc1Cl [Example 289] | ≥ 80% | ≥ 80% | ≥ 80% | 3.01 |  |  |  |
| Cc1cc(Cl)cc(C(=O)NC(C)C)c1NC(=O)c1cc(Cn2nnnc2C(F)(F)F)nn1-c1ncccc1Cl [Example 162] | ≥ 80% | ≥ 80% | ≥ 80% | 3.12 |  |  | pest or weed control at 100 ppm [7]: ≥ 80% |
| Cc1cc(Cl)cc(C(=O)NC(C)(C)C)c1NC(=O)c1cc(C(C)n2nnnc2C(F)(F)F)nn1-c1ncccc1Cl (stereo not shown) [Example 511] | ≥ 80% | ≥ 80% | ≥ 80% | 3.75 |  |  |  |
| CNC(=O)c1cc(Cl)cc(Cl)c1NC(=O)c1cc(Cn2nnc(C(F)(F)F)n2)nn1-c1ncccc1Cl [Example 54] | ≥ 80% | ≥ 80% | ≥ 80% | 2.93 |  |  |  |
| Cc1cc(Br)cc(C(N)=O)c1NC(=O)c1cc(Cn2nnc(C(F)(F)F)n2)nn1-c1ncccc1Cl [Example 44] | ≥ 80% | ≥ 80% | ≥ 80% | 2.81 |  |  |  |
| Cc1cc(C#N)cc(C(=O)NC(C)(C)C)c1NC(=O)c1cc(Cn2nnc(C(F)(F)F)n2)nn1-c1ncccc1Br [Example 332] |  | ≥ 80% |  |  | ≥ 80% | ≥ 80% | chromatographic logP [6, 12]: 3.43 |
| N#CCNC(=O)c1cc(Cl)cc(Cl)c1NC(=O)c1cc(Cn2nnc(C(F)(F)C(F)(F)F)n2)nn1-c1ncccc1Cl [Example 158] | ≥ 80% | ≥ 80% | ≥ 80% | 3.32 |  |  |  |
| Cc1cc(Cl)cc(C(=O)NC2CC2)c1NC(=O)c1cc(Cn2nnnc2C(F)(F)F)nn1-c1ncccc1Cl [Example 163] | ≥ 80% | ≥ 80% | ≥ 80% | 2.89 |  |  |  |
| Cc1cc(Br)cc(C(=O)NC2CC2)c1NC(=O)c1cc(Cn2nnc(C(F)F)n2)nn1-c1ncccc1Cl [Example 298] | ≥ 80% | ≥ 80% | ≥ 80% | 2.85 |  |  |  |
| CCC(C)NC(=O)c1cc(C#N)cc(C)c1NC(=O)c1cc(Cn2nnc(C(F)(F)F)n2)nn1-c1ccccc1Cl (stereo not shown) [Example 530] |  | ≥ 80% |  |  | ≥ 80% | ≥ 80% | chromatographic logP [6, 11]: 3.81 |
| CNC(=O)c1cc(F)cc(C)c1NC(=O)c1cc(Cn2nnc(C(F)(F)F)n2)nn1-c1ncccc1Cl [Example 29] | ≥ 80% | ≥ 80% | ≥ 80% | 2.66 |  |  |  |
| Cc1cc(Cl)cc(C(=O)NC(C)C)c1NC(=O)c1cc(Cn2nnnc2C(F)(F)F)nn1-c1ncccc1Br [Example 485] |  | ≥ 80% |  |  | ≥ 80% | ≥ 80% | chromatographic logP [6, 11]: 3.14 |
| CNC(=O)c1cc(C#N)cc(C)c1NC(=O)c1cc(C(C)n2nnc(C(F)(F)F)n2)nn1-c1ncccc1Cl (stereo not shown) [Example 542] | ≥ 80% | ≥ 80% | ≥ 80% | 2.86 |  |  |  |

Reference: patent US8324390B2, “Tetrazole-substituted anthranilamides as pesticides” (Bayer CropScience AG, priority 2008, dated 2012)
